Laboratory results: US11046709B2, “Fused 1,4-diazepines as BET bromodomain inhibitors” (THE REGENTS OF THE UNIVERSITY OF MICHIGAN, priority 2017, dated 2021)

Experiments:
recombinant BRD4 BD2 = target: T1, recombinant BRD4 BD2 (Homo sapiens, UniProt O60885); assay: Competitive fluorescence-polarization (FP) binding assay, BRD4 BD2
T1 construct: for recombinant BRD4 BD1 and BRD4 BD2 proteins
Procedure: Fluorescence Polarization (FP) competitive binding studies were carried out using a FAM labeled fluorescent probe, see, e.g., Cpd. No. 350 of US 2014/0256706, to determine binding affinities of representative Compounds of the Disclosure for recombinant BRD4 BD1 and BRD4 BD2 proteins. Equilibrium dissociation constants (Kd) values of the fluorescent probe to BRD4 BD1 and BD2 proteins were determined from protein saturation experiments by monitoring the total fluorescence polarization of mixtures composed with the fluorescent probe at a fixed concentration and proteins with increasing concentrations up to full saturation. Serial dilutions of testing proteins were mixed with the fluorescent probe to a final volume of 200 μl in the assay buffer (100 mM phosphate buffer, pH=6.5, 0.01% Triton X-100 (Sigma, 282103) being added right before assays). Final fluorescent probe concentration was 1.5 nM for both proteins. Plates were incubated at room temperature for 30 minutes with gentle shaking to assure equilibrium. FP values in millipolarization units (mP) were measured using the Infinite M-1000 plate reader (Tecan U.S., Research Triangle Park, N.C.) in Microfluor 1 96-well, black, round-bottom plates (Thermo Scientific, Waltham, Mass.) at an excitation wavelength of 485 nm and an emission wavelength of 530 nm. Kd values of the fluorescent probe, which were calculated by fitting the sigmoidal dose-dependent FP increases as a function of protein concentrations using Graphpad Prism 6.0 software (Graphpad Software, San Diego, Calif.), are 5.5 and 3.0 nM to BDR4 BD1 and 2, respectively.
The IC50 and Ki values of compounds were determined in a competitive binding experiment. See US 2014/0256706. Mixtures of 10 μl of the tested compounds in assay buffer with 40% Ethylene Glycol and 190 μl of preincubated protein/probe complex solution in the assay buffer (100 mM potassium phosphate, pH 6.5, 0.01% Triton X-100) were added into assay plates which were incubated at room temperature for 30 minutes with gentle shaking. Final concentrations of proteins were 10 and 6 nM in assays for BRD4 BD1 and BD2, respectively. Final probe concentration is 1.5 nM in both assays. Negative controls containing protein/probe complex only (equivalent to 0% inhibition), and positive controls containing only free probes (equivalent to 100% inhibition), were included in each assay plate. FP values were measured as described above. IC50 values were determined by nonlinear regression fitting of the competition curves. Instead of being calculated from IC50 values as described before. Ki values of competitive inhibitors were obtained directly by nonlinear regression fitting as well, based upon the Kd values of the probe to different proteins, and concentrations of the proteins and probes in the competitive assays (US 2014/0256706; Wang, FEBS Lett. 360:111 (1995); Zhang et al., Analytical Biochemistry, 331:138 (2004)).
Representative compounds in Table 5 were evaluated for their binding affinities to BRD4 BD1 and BD2 proteins using the Competitive Fluorescence-Polarization (FP) Assays described in Example 6, with the data included in Table 6.

MOLM-13 = assay: Cell growth inhibition, 4-day proliferation assay, MOLM-13; type: cell-based; settings: Homo sapiens, MOLM-13, WST-8 assay, Table 7; read-out: Cell growth inhibition (IC50 (nM)) MOLM-13
Procedure: (§1) The effect of representative Compounds of the Disclosure on cell viability was determined in a 4-day proliferation assay. Cells were maintained in the appropriate culture medium with 100/0 FBS at 37° C. and an atmosphere of 5% CO2. All the cell lines were used within three months of thawing fresh vials.
(§2) In general, cells were seeded in 96-well flat bottom (Corning COSTAR, Corning, N.Y., cat #3595) or white opaque cell culture plates (BD Falcon, cat #353296) at a density of 3,000-10,000 cells/well in 75 μl of culture medium. Compounds were serially diluted in the appropriate medium, and 75 μl of the diluted compounds were added to the appropriate wells of the cell plate. After the addition of compounds, the cells were incubated at 37° C. in an atmosphere of 5% CO2 for 4 days. Cell viability was determined using the CellTiter-Glo® Luminescent Cell Viability Assay Kit (Promega, Madison, Wis.) for leukemia cells and WST (2-(2-methoxy-4-nitrophenyl)-3-(4-nitrophenyl)-5-(2,4-disulfophenyl)-2H-tetrazolium, monosodium salt) Cell Counting-8 Kit (Dojindo Molecular Technologies, Inc., Rockville, Md.) for adherent cells according to the manufacturers' instructions.
(§3) For WST assay (adherent cells), WST-8 reagent was added to each well at a final concentration of 10% (v/v), and then the plates were incubated at 37° C. for 1-2 hours for color development. The absorbance was measured at 450 nm using a SPECTRAmax PLUS plate reader (Molecular Devices, Sunnyvale, Calif.). The readings were normalized to the DMSO-treated cells and the half maximal inhibitory concentration (IC50) was calculated by nonlinear regression (four parameters sigmoid fitted with variable slope, least squares fit, and no constraint) analysis using the GraphPad Prism 5 software (GraphPad Software, La Jolla, Calif.).
(§4) For CellTiter-Glo assay (suspension cells), 100 μl of CellTiter-Glo® Reagent was added to each well, and then the plates were incubated at room temperature for 10-20 minutes. The luminescent signal was measured using a Tecan Infinite M1000 multimode microplate reader (Tecan, Morrisville, N.C.). The readings were normalized to the DMSO-treated cells and the IC50 was calculated by nonlinear regression (four parameters sigmoid fitted with variable slope, least squares fit, and no constraint) analysis using the GraphPad Prism 5 software. See US 2014/0256706.
(§5) For a number of representative compounds in Table 5, their IC50 values in cell growth inhibition activity in the RS4;11 and MOLM-13 human leukemia cell lines and the MDA-MB-231 breast cancer cell line were evaluated using the WST-8 assay described in EXAMPLE 7, with the data shown in Table 7.

MDA-MB-231 = assay: Cell growth inhibition, 4-day proliferation assay, MDA-MB-231; type: cell-based; settings: Homo sapiens, MDA-MB-231; WST-8 assay, Table 7; read-out: Cell growth inhibition (IC50 (nM)) MDA-MB-231
Procedure: as §1, §2, §3, §4, §5

SMILES | IC50 (recombinant BRD4 BD2) [nM] | IC50 (MOLM-13) [nM] | IC50 (MDA-MB-231) [nM]
Cc1c(C#Cc2cn[nH]c2)sc2c1C(c1ccc(Cl)cc1)=N[C@@H](C)c1nnc(C)n1-2 [Cpd. No. 22, (S)-2-((1H-pyrazol-4-yl)ethynyl)-4-(4-chlorophenyl)-3,6,9-trimethyl-6H-thieno[3,2-f][1,2,4]triazolo[4,3-a][1,4]diazepine] | 7.68 |  | 
Cc1c(C#Cc2ccc(F)cn2)sc2c1C(c1ccc(Cl)cc1)=N[C@@H](C)c1nnc(C)n1-2 [Cpd. No. 31, (S)-4-(4-chlorophenyl)-2-((5-fluoropyridin-2-yl)ethynyl)-3,6,9-trimethyl-6H-thieno[3,2-f][1,2,4]triazolo[4,3-a][1,4]diazepine] | 19.5 |  | 
Cc1c(C#Cc2cncs2)sc2c1C(c1ccc(Cl)cc1)=N[C@@H](C)c1nnc(C)n1-2 [Cpd. No. 34, (S)-4-(4-chlorophenyl)-3,6,9-trimethyl-2-(thiazol-5-ylethynyl)-6H-thieno[3,2-f][1,2,4]triazolo[4,3-a][1,4]diazepine] | 21.8 |  | 
COc1ccc(C#Cc2sc3c(c2C)C(c2ccc(Cl)cc2)=N[C@@H](C)c2nnc(C)n2-3)nc1 [Cpd. No. 36, (S)-4-(4-chlorophenyl)-2-((5-methoxypyridin-2-yl)ethynyl)-3,6,9-trimethyl-6H-thieno[3,2-f][1,2,4]triazolo[4,3-a][1,4]diazepine] | 11.7 |  | 
Cc1c(C#Cc2ccc(N)cn2)sc2c1C(c1ccc(Cl)cc1)=N[C@@H](C)c1nnc(C)n1-2 [Cpd. No. 32, (S)-6-((4-(4-chlorophenyl)-3,6,9-trimethyl-6H-thieno[3,2-f][1,2,4]triazolo[4,3-a][1,4]diazepin-2-yl)ethynyl)pyridin-3-amine] | 9.87 |  | 
Cc1c(C#CC2CCCC2)sc2c1C(c1ccc(Cl)cc1)=N[C@@H](C)c1nnc(C)n1-2 [Cpd. No. 29, (S)-4-(4-chlorophenyl)-2-(cyclopentylethynyl)-3,6,9-trimethyl-6H-thieno[3,2-f][1,2,4]triazolo[4,3-a][1,4]diazepine] | 10.3 |  | 
Cc1c(C#Cc2cnn(C)c2)sc2c1C(c1ccc(Cl)cc1)=N[C@@H](CC(=O)N1CCNCC1)c1nnc(C)n1-2 [Compound 161, (S)-2-(4-(4-chlorophenyl)-3,9-dimethyl-2-((1-methyl-1H-pyrazol-4-yl)ethynyl)-6H-thieno[3,2-f][1,2,4]triazolo[4,3-a][1,4]diazepin-6-yl)-1-(piperazin-1-yl)ethan-1-one] |  | 10.9 | 76.2
Cc1c(C#Cc2cnn(C)c2)sc2c1C(c1ccc(Cl)cc1)=N[C@@H](CC(=O)N1CCN(C)CC1)c1nnc(C)n1-2 [Compound 162, (S)-2-(4-(4-chlorophenyl)-3,9-dimethyl-2-((1-methyl-1H-pyrazol-4-yl)ethynyl)-6H-thieno[3,2-f][1,2,4]triazolo[4,3-a][1,4]diazepin-6-yl)-1-(4-methylpiperazin-1-yl)ethan-1-one] |  | 19.2 | 109 ± 38
Cc1c(C#Cc2cn[nH]c2)sc2c1C(c1ccc(Cl)cc1)=NCc1nnc(C)n1-2 [Cpd. No. 21, 2-((1H-pyrazol-4-yl)ethynyl)-4-(4-chlorophenyl)-3,9-dimethyl-6H-thieno[3,2-f][1,2,4]triazolo[4,3-a][1,4]diazepine] | 37.4 |  | 
Cc1c(C#Cc2cncn2C)sc2c1C(c1ccc(Cl)cc1)=N[C@@H](C)c1nnc(C)n1-2 [Cpd. No. 30, (S)-4-(4-chlorophenyl)-3,6,9-trimethyl-2-((1-methyl-1H-imidazol-5-yl)ethynyl)-6H-thieno[3,2-f][1,2,4]triazolo[4,3-a][1,4]diazepine] | 13.5 |  | 
Cc1c(C#CCN2CCN(C)CC2)sc2c1C(c1ccc(Cl)cc1)=N[C@@H](C)c1nnc(C)n1-2 [Cpd. No. 33, (S)-4-(4-chlorophenyl)-3,6,9-trimethyl-2-(3-(4-methylpiperazin-1-yl)prop-1-yn-1-yl)-6H-thieno[3,2-f][1,2,4]triazolo[4,3-a][1,4]diazepine] | 42.2 |  | 
Cc1c(C#Cc2ccccn2)sc2c1C(c1ccc(Cl)cc1)=N[C@@H](CC(=O)N1CC(C)(O)C1)c1nnc(C)n1-2 [Compound 138, (S)-2-(4-(4-chlorophenyl)-3,9-dimethyl-2-(pyridin-2-ylethynyl)-6H-thieno[3,2-f][1,2,4]triazolo[4,3-a][1,4]diazepin-6-yl)-1-(3-hydroxy-3-methylazetidin-1-yl)ethan-1-one] |  | 15 to 30 | 211
Cc1c(C#Cc2cncn2C)sc2c1C(c1ccc(Cl)cc1)=N[C@@H](CC(=O)N1CCNCC1)c1nnc(C)n1-2 [Compound 164] |  | 85.4 | 304
Cc1nnc(C[C@@H]2N=C(c3ccc(Cl)cc3)c3c(sc(C#CC(C)C)c3C)-n3c(C)nnc32)o1 [Compound 148, (S)-2-((4-(4-chlorophenyl)-3,9-dimethyl-2-(3-methylbut-1-yn-1-yl)-6H-thieno[3,2-f][1,2,4]triazolo[4,3-a][1,4]diazepin-6-yl)methyl)-5-methyl-1,3,4-oxadiazole] |  | 6 | 7.7
Cc1c(C#Cc2cccnc2)sc2c1C(c1ccc(Cl)cc1)=N[C@@H](CC(C)C)c1nnc(C)n1-2 [Compound 106, (S)-4-(4-chlorophenyl)-6-isobutyl-3,9-dimethyl-2-(pyridin-3-ylethynyl)-6H-thieno[3,2-f][1,2,4]triazolo[4,3-a][1,4]diazepine] |  | 393 | 670 ± 100
Cc1c(C#Cc2cnn(C)c2)sc2c1C(c1ccc(Cl)cc1)=N[C@@H](CC(C)C)c1nnc(C)n1-2 [Compound 108, (S)-4-(4-chlorophenyl)-6-isobutyl-3,9-dimethyl-2-((1-methyl-1H-pyrazol-4-yl)ethynyl)-6H-thieno[3,2-f][1,2,4]triazolo[4,3-a][1,4]diazepine] |  | 232 | 200 ± 30
Cc1c(C#Cc2nccs2)sc2c1C(c1ccc(Cl)cc1)=N[C@@H](C)c1nnc(C)n1-2 [Cpd. No. 35, (S)-4-(4-chlorophenyl)-3,6,9-trimethyl-2-(thiazol-2-ylethynyl)-6H-thieno[3,2-f][1,2,4]triazolo[4,3-a][1,4]diazepine] | 22 |  | 
